In patent US5506264A, “Zinc tranexamate compounds” (Zaidan Hojin Seisan Kaihatsu Kaguki Kenkyusho, priority 1992, dated 1996):
Counter-ions that a name gives are not always drawn. Blank lines part the entries; values can stand above or below the compound they belong to.

Assays:
[1] = system: Stomach injury through water-immersion constraint stress; experiment: Anti-ulcer test (2): stomach injury through water-immersion constraint stress; type: in vivo, Male rats of Sprague-Dawley strain; conditions: 50 mg/kg oral, immediately before stress-loading (23° C., 8 hours), 8 animals, * p<0.05; for Ulcer coefficient (mm) mean ± S.E.: non-treated 52.8 ± 9.8
Method: Male rats of Sprague-Dawley strain (supplied by Charles-River Co., SPE) weighing 220 to 280 g were fasted for 24 hours and employed in the experiment, whereby the rats were allowed free access to water for the first 22 hours, with no water being given for the remaining 2 hours. The test compound was suspended in 0.5% aqueous carboxymethylcellulose solution and the suspension was given to the test animals at a dose of 1 ml/200 g body weight, with the solvent alone being applied as a control at the same dose. The rats were stress-loaded by soaking the animals placed in a stress cage of Univ. of Tokyo type up to the xiphoid in a water tank at 23° C. and they were taken out of the tank 8 hours later and sacrificed with ether. The stomachs were isolated and treated with formalin, and individual injuries formed in the glandular portion of the stomach were measured in length (mm), with the total sum per rat of the measured injury lengths being calculated. The test compound was given to the test animals orally immediately before the stress-loading.

[2] = system: Stomach injury with hydrochloric acid/ethanol; experiment: Anti-ulcer test (1): stomach injury with hydrochloric acid/ethanol; type: in vivo, Male rats of Sprague-Dawley strain; conditions: for Suppression % / Ulcer coefficient (mm) mean ± S.E.: 50 mg/kg oral, 1 hour before hydrochloric acid/ethanol, 8 animals, * p<0.05; for Ulcer coefficient (mm) mean ± S.E.: non-treated 78.4 ± 21.1
Method: Male rats of Sprague-Dawley strain (supplied by Charles-River Co., SPE) weighing 220 to 280 g were fasted for 24 hours and employed in the experiment, whereby the rats were allowed free access to water for the first 22 hours, with no water being given for the remaining 2 hours. The test compound was suspended in 0.5% aqueous carboxymethylcellulose solution and the suspension was given to the test animals at a dose of 1 ml/200 g body weight, with the solvent alone being applied as a control at the same dose. Rats were treated by oral administration of hydrochloric acid/ethanol (containing 0.15 mole hydrochloric acid solution in 80% ethanol) at a dose of 1 ml/200 g body weight and sacrificed with ether 1 hour later, and the stomachs and duodena were isolated, followed by removal of the contents from the duodena. After the cardiac orifices were ligated, 2% formalin solution was injected in 8 ml portion into the stomachs through the duodenum, and the pyloric sphincters were ligated, followed by immersion into the same solution for 10 min to perform slight fixation (hereinafter referred to as "formalin treatment"). The stomachs were incised along the greater curvature, and individual injuries (erosions) generated in the glandular portion of each stomach were measured in length (mm) under microscope for anatomy (10 fold magnification), with the total sum per rat of measured injury lengths being calculated. The test compound was given to the animals orally 1 hour before administration of hydrochloric acid/ethanol.

Solubility in water = type: physicochemical
mice = experiment: Acute toxicity test, oral; conditions: 3 day observation
Description: Male ddy strain mice (weighing 23 to 26 g) used in the experiment were divided into groups each consisting of 3 heads and treated by oral administration of the test compound suspended with powdered gum arabic, followed by observation for any abnormalities over a 3 day period to find the number of dead animals.

Compound: NC[C@H]1CC[C@H](C(=O)O)CC1 [Tranexamic acid, tranexamic acid]
Suppression % [1]: 11.9% | Ulcer coefficient (mm) mean ± S.E. [1]: 46.5 ± 8.4 mm | Suppression % [2]: 10.1% | Ulcer coefficient (mm) mean ± S.E. [2]: 70.5 ± 20.1 mm | effects in the anti-ulcer tests ([2]; conclusion in words from the test results): did not produce any marked effects

Compound: NC[C@H]1CC[C@H](C(=O)Oc2ccc(CCC(=O)O)cc2)CC1 [Cetraxate hydrochloride]
Suppression % [1]: 39.4% | Ulcer coefficient (mm) mean ± S.E. [1]: 32.0 ± 8.4 mm | Suppression % [2]: 40.9% | Ulcer coefficient (mm) mean ± S.E. [2]: 46.3 ± 7.6 mm

amount of compound dissolving in 2 ml of water (Solubility in water): 1 g
Compound: L-malic acid salt of zinc tranexamate monohydrate

Compound: zinc tranexamate monohydrate
Suppression % [1]: 57.8% | Ulcer coefficient (mm) mean ± S.E. [1]: 22.3 ± 8.4 mm | Suppression % [2]: 81.1% | Ulcer coefficient (mm) mean ± S.E. [2]: 14.8 ± 4.5 mm | suppressory activity in the anti-ulcer test, compared with control, tranexamic acid and cetraxate hydrochloride ([2]; summary in words of the anti-ulcer tests (Tables 1 and 2)): improved suppressory activity as compared with the control, or tranexamic acid and cetraxate hydrochloride | Nd/No (No. of dead animals / total No. of experimental animals) (mice; 600 mg/kg oral): 0/3 | Nd/No (No. of dead animals / total No. of experimental animals) (mice; 1,200 mg/kg oral): 0/3 | mortality (mice; oral doses up to 1,200 mg/kg): did not cause any animal to die
